5 compounds from US20210238136A1, “AZETIDINE DERIVATIVE, AND PRODRUG THEREOF” (DAIICHI SANKYO COMPANY, LIMITED, priority 2018, published 2021) can be followed below.

Experiment [1] relates to mouse acute GVHD model. Briefly: Mouse acute GVHD model, IFN-γ concentration in plasma. Format: in vivo, mouse (BDF1 host, C57BL/6N donor). Particulars: for effective dose, suppression of IFN-γ in plasma: oral, twice daily from Day 0, plasma on Day 7, significant relative to the Vehicle group. The protocol:
FIG. 2 is a graph showing the effect of the compound of Example 89 in mouse acute GVHD models. The compound of Example 89 was orally administered at 1.5, 5, 15, or 50 mg/kg, BID. The vertical axis is the concentration of interferon gamma (sometimes abbreviated herein as IFN-γ or IFN-g) in blood on day 7 after elicitation in the model.
Effect of Test Substance in Mouse Acute GVHD Model
A mouse acute graft-versus-host disease (GVHD) model was generated in accordance with a previous report (Puliaev R et al. Differential requirement for IFN-gamma in CTL maturation in acute murine graft-versus-host disease. J Immunol. 173, 910-9 (2004)). Splenocytes were prepared from euthanized donor mice (C57BL/6N), suspended in PBS without hemolysis of erythrocytes, and administered to host mice, BDF1 mice, from the tail vein (the number of transfer cells was adjusted to be 7 to 8×10^7 cells/0.2 mL/mouse in every test, and matched between individuals within the same test). In the Normal group, 0.2 mL of PBS was administered in place of the cells. The test substance was crushed in an agate mortar, and then suspended in a 0.5% hydroxypropyl cellulose (HPC) solution to prepare a dosage solution. In the Vehicle group, 0.5% HPC was used as a dosage solution. To the host mice, the dosage solution was forcibly orally administered (0.2 mL/mouse) twice daily with a feeding needle from the morning of Day 0 (cell transfer) to the end of the experiment. The tail vein was cut without anesthesia on Day 7 and a small amount of blood was collected with a hematocrit tube (EDTA). Plasma was collected by centrifugation and IFN-γ concentration in plasma was measured with an αLISA kit (Mouse IFN-γ alphaLISA, PerkinElimer, AL501C). […] For the difference between the Normal group and the Vehicle group, comparison between two groups was performed by Student's t-test. The difference between the Vehicle group and the test substance administration group was analyzed by a parametric multiple-comparison test, Dunnett test.

For experiment [2], the system named is NZB/W F1 mice. Briefly: Survival of NZB/W F1 mice that naturally develop SLE-like symptoms and nephritis. The format is in vivo, mouse (NZB/W F1). Particulars: oral from the age of 12 weeks; Example 44 at 30, 100 mg/kg BID; MMF 60 mg/kg QD; Vehicle survival rate 35%. As to the method: FIG. 4 is a graph showing the effect of the compound of Example 44 in NZB/W F1 mice that naturally develop SLE-like symptoms and nephritis. To NZB/W F1 mice, the compound of Example 44 was orally administered at 30, 100 mg/kg, BID, and MMF was orally administered at 60 mg/kg, QD, starting at the age of 12 weeks. The vertical axis indicates the survival rate and the horizontal axis indicates the period. Both of the Vehicle group and the compound of Example 44 administration group was at N=20, and the MMF administration group was at N=15. The surviving days was analyzed by the Kaplan-Meier method, and the group in which the p-value was 0.001 or less compared to the Vehicle group by the log rank test is shown by ***.
Effect of Compound of Example 44 in NZB/W F1 Mice that Naturally Develop SLE-Like Symptoms and Nephritis
To NZB/W F1 mice that naturally develop SLE-like symptoms and nephritis, test substance was forcibly orally administered (0.2 mL/mouse) twice daily with a feeding needle, starting at the age of 12 weeks. The compound of Example 44 was orally administered at 30, 100 mg/kg, BID, and MMF was orally administered at 60 mg/kg, QD. […] Mice were observed daily, and those that reached a dying state such as weight loss and dyspnea were euthanized, and the survival rate was evaluated. The number of survival days was analyzed by the Kaplan-Meier method and the log rank test was performed. […]

The test system of experiment [3] is mouse chronic GVH model. Nature of the experiment: Kidney disorder in mouse chronic GVH model, urine protein/creatinine ratio. Format: in vivo, mouse (BDF1 host, DBA2 donor). Particulars: for minimum effective dose / effective dose, urine protein/creatinine ratio: oral, twice daily from Day 4, urine on Day 32, p-value of 0.05 or less relative to the Vehicle group. As to the method:
FIG. 3 is a box plot graph showing the effect of the compound of Example 89 on renal disorder in mouse chronic GVH models. The compound of Example 89 was orally administered at 1.5, 5, 15, or 50 mg/kg, BID, and MMF was orally administered at 30 mg/kg, BID. […] The boxes in the graph represent box plots of the median and the quartile range for each group at N=12. The plots show the values of each individual. Both between the non-elicitation group (Normal group) and the Vehicle group, and between the Vehicle group and the MMF group were compared by the Wilcoxon test (non-parametric, two-group comparison). # means that the p-value is 0.05 or less, and $$ means that the p-value is 0.01 or less, respectively. The Vehicle group and the compound group of Example 89 were analyzed by the Shirley-Williams test (non-parametric, multiple comparisons with dose response). The groups in which the p-value is 0.01 or less and 0.001 or less are shown by ** and ***, respectively.
Effect of Test Substance on Kidney Disorder in Mouse Chronic GVH Model
A mouse chronic graft-versus-host (GVH) model was generated in accordance with a previous report (Via CS. Advances in lupus stemming from the parent-into-F1 model. Trends Immunol. 31, 236-45 (2010)). Splenocytes were prepared from euthanized donor mice (DBA2 mice), suspended in PBS without hemolysis of erythrocytes, and administered to host mice, BDF1 mice, from tail veins (1×10^8 cells/0.2 mL/mouse) at Day 0 and Day 4, twice. In the Normal group, 0.2 mL of PBS was administered in place of the cells. The test substance was crushed in an agate mortar, and then suspended in a 0.5% hydroxypropyl cellulose (HPC) solution to prepare a dosage solution. In the Vehicle group, 0.5% HPC was used as a dosage solution. To the host mice, the dosage solution was forcibly orally administered (0.2 mL/mouse) twice daily with a feeding needle from Day 4 (second cell transfer) to the end of the experiment. Urine was collected on Day 32 under free diet with a metabolic cage. Urine protein concentration was measured with a urine protein test kit (total protein kit microTP test wako, FUJIFILM Wako Pure Chemical Corporation, pyrogallol red method), and urine creatinine concentration was measured using a creatinine test kit (LabAssay™ creatinine, FUJIFILM Wako Pure Chemical Corporation, Jaffe method), and the ratio of urine protein to creatinine was calculated for each individual. […] For the difference between the Normal group and the Vehicle group, the Wilcoxon test (non-parametric, comparison between two groups) was performed, and for the difference between the Vehicle group and the test substance administration group, the analysis was performed by the Shirley-Williams test (non-parametric, multiple comparison with dose response).

On to `CC(OC(=O)N[C@@H](Cc1cccc(S(=O)(=O)N2CC(Oc3ccc(F)cc3)(c3ccccc3)C2)c1)C(=O)O)OC(=O)C(C)(C)C` (stereo partly drawn) [Example 44, (2S)-3-(3-((3-(4-Fluorophenoxy)-3-phenylazetidin-1-yl)sulfonyl)phenyl)-2-(((1-(pivaloyloxy)ethoxy)carbonyl)amino)propanoic acid], for which, in experiment [1], the “effective dose, suppression of IFN-γ in plasma” value (shortened to “effective dose, suppression”) is on record as ≥ 10 mg/kg, BID. Also, the “survival until the end of the experiment (age of 44 weeks)” value in experiment [2] is “no death was observed”.
On to `CC(=O)O[C@@H](C)OC(=O)N[C@@H](Cc1cccc(S(=O)(=O)N2CC(Oc3cccc(F)c3)(c3ccccc3)C2)c1)C(=O)O` [Example 89, (S)-2-((((R)-1-Acetoxyethoxy)carbonyl)amino)-3-(3-((3-(3-fluorophenoxy)-3-phenylazetidin-1-yl)sulfonyl)phenyl)propanoic acid], for which, in experiment [3] (oral 1.5, 5, 15, or 50 mg/kg BID, Day 32), the “effect on urine protein/creatinine ratio” value was “suppressed the urine protein/creatinine ratio in a dose-dependent manner”. In addition, the “minimum effective dose / effective dose, urine protein/creatinine ratio” value in experiment [3] is on record as 15 mg/kg, BID. Also, the “effect on IFN-γ in plasma” value in experiment [1] (oral 1.5, 5, 15, or 50 mg/kg BID, Day 7) is “inhibited IFN-γ in plasma in a dose-dependent manner”. In addition, the “effective dose, suppression” value in experiment [1] is listed as ≥ 1.5 mg/kg, BID.
As to `C[C@H](OC(=O)N[C@@H](Cc1cccc(S(=O)(=O)N2CC(Oc3cccc(F)c3)(c3ccccc3)C2)c1)C(=O)O)OC(=O)C(C)(C)C` [Example 97], in experiment [3], the “minimum effective dose / effective dose, urine protein/creatinine ratio” value is listed as 15 mg/kg, BID.
For `CC(C)C(=O)O[C@@H](C)OC(=O)N[C@@H](Cc1cccc(S(=O)(=O)N2CC(Oc3ccc(F)cc3)(c3ccccc3)C2)c1)C(=O)O` [Example 104, (S)-3-(3-((3-(4-Fluorophenoxy)-3-phenylazetidin-1-yl)sulfonyl)phenyl)-2-((((R)-1-(isobutyryloxy)ethoxy)carbonyl)amino)propanoic acid], the “minimum effective dose / effective dose, urine protein/creatinine ratio” value in experiment [3] was 15 mg/kg, BID. Also, the “effective dose, suppression” value in experiment [1] was ≥ 15 mg/kg, BID.
Regarding `COc1c(C)c2c(c(O)c1C/C=C(\C)CCC(=O)OCCN1CCOCC1)C(=O)OC2` [MMF, mycophenolate mofetil, reference compound], the “survival until the end of the experiment (age of 44 weeks)” value in experiment [2] is recorded as “no death was observed”.
